Structures are written as SMILES.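 Compound exposure: 48 hours, 5 concentrations, 96-well plates. At the TGI there is no net growth.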

What all share (experiment): NCI-60 cell line screen, 48 h
Assay [1] has as its system CCRF-CEM leukemia.
The test system of assay [2] is HL-60(TB) leukemia.
Assay [3] deals with NCI-H23 lung.
For assay [4], the system named is NCI-H460 lung.
Assay [5] has as its system SR leukemia.
Assay [6] has as its system UACC-257 melanoma.

For the molecule `CC(=O)NNc1nc(C)c(C(=O)NNC(=O)C(=O)Nc2ccc(Cl)c([N+](=O)[O-])c2)s1`, the TGI in assay [1] was 56.8 µM; in assay [2] it was greater than 100 µM; in assay [3], greater than 100 µM; in assay [4] it was greater than 100 µM; in assay [5], greater than 100 µM; in assay [6], greater than 100 µM.

`O=C1C=CC2(CCCCCCC2=O)CC1` (stereo not drawn): the TGI in assay [1], in assay [2], in assay [4], in assay [5] and in assay [6] was greater than 100 µM each time.

`COc1cc(/C=C/C(=O)c2cccc3ccccc23)cc(OC)c1OC`: the TGI was 7.27 µM in assay [1]; 4.31 µM in assay [2]; 18.4 µM in assay [3]; 14.2 µM in assay [4]; 73.2 µM in assay [5]; 19.7 µM in assay [6].

Take `O=C(CCc1nc(=S)[nH][nH]1)Nc1cc(Cl)ccc1Cl`: the TGI in assay [1], in assay [2], in assay [3], in assay [4], in assay [5] and in assay [6] was greater than 100 µM in each case.

Consider `NC1=NN(c2ccccc2)C(=O)C1C(=O)C(=O)Nc1ccc(Cl)cc1` (stereo not drawn), for which the TGI in assay [1], in assay [2], in assay [3], in assay [4], in assay [5] and in assay [6] was greater than 100 µM each time.

For the molecule `O=S(=O)(C1=CC(S(=O)(=O)c2ccccc2)COC1)c1ccccc1` (stereo not drawn), the TGI in assay [1], in assay [2], in assay [3], in assay [4], in assay [5] and in assay [6] was greater than 100 µM in each case.

As to `O=C(NCCCCCCCCCCCCNC(=O)c1cnc2ccccc2n1)c1cnc2ccccc2n1`, the TGI in assay [1], in assay [2], in assay [4] and in assay [6] was greater than 100 µM in each case.

In the case of `C#CCN(N=O)C(=O)NC(CCCCNC(=O)OCc1ccccc1)C(=O)OCc1ccccc1` (stereo not drawn), the TGI in assay [1] was 41.8 µM; in assay [2] it was 37.6 µM; in assay [3] it was greater than 100 µM; in assay [4] it was greater than 100 µM; in assay [6], 79.5 µM.

With `Cc1ccc2nc(NC(=O)C(=O)C(C(=O)c3ccc4ccccc4c3)C3OC(=O)c4ccccc43)sc2c1` (stereo not drawn), the TGI stood at 18.3 µM in assay [3], 18 µM in assay [4], 62.1 µM in assay [5] and 31.8 µM in assay [6].

Take `c1ccc2c(c1)[nH]c1cnc3c4ncccc4[nH]c3c12`: the TGI in assay [1], in assay [2], in assay [3], in assay [4] and in assay [6] was greater than 100 µM throughout.

Take `CC(=O)OC1C[C@H]2C(OC(=O)c3ccccc3)C3C4(OC(C)=O)COC4C[C@H](OC(C)=O)[C@@]3(C)C(OC(C)=O)[C@H](OC(C)=O)C(=C1C)C2(C)C` (stereo partly drawn): the TGI was greater than 100 µM in assay [1]; 72 µM in assay [2]; greater than 100 µM in assay [3]; greater than 100 µM in assay [4]; greater than 100 µM in assay [6].

Consider `CCCCCCCCSC(=O)NCCCC`, for which the TGI in assay [1] is greater than 100 µM; in assay [2] it was 41.3 µM; in assay [3] it was greater than 100 µM; in assay [4], greater than 100 µM.

Take `COc1ccc(C(c2ccccc2C(=O)O)c2ccc(OC)c3ccccc23)c2ccccc12`: the values for the TGI in assay [1], in assay [2] and in assay [6] were greater than 100 µM, 38.1 µM and 24.5 µM, respectively.

Regarding `CC1=C(C(=O)Nc2cccc(Cl)c2)C(c2ccccc2O)C(C(=O)Nc2cccc(Cl)c2)=C(C)N1`, the TGI came out at 50.2 µM in assay [1]; 48.1 µM in assay [2]; 33.1 µM in assay [3]; 46.4 µM in assay [4]; 36.6 µM in assay [6].

Consider `CC12Nc3ccccc3C1=C(c1ccccc1)CC1C(=O)OC(=O)C12` (stereo not drawn), for which the TGI in assay [1], in assay [2], in assay [3], in assay [4] and in assay [6] was greater than 100 µM each time.

Regarding `CC(=O)OCCOCn1c2ccccc2c2c3c(c4c5ccccc5n(COCCOC(C)=O)c4c21)C(=O)N(Cc1ccccc1)C3=O`, the TGI in assay [1], in assay [2], in assay [3], in assay [4] and in assay [6] was greater than 100 µM in each case.

Take `CCCCC(C(=O)C(=O)Nc1ccc(C)cc1C)C(=O)C(C)C` (stereo not drawn): the TGI in assay [2], in assay [3], in assay [4] and in assay [6] was greater than 100 µM in each case.

With `CC(C)N(C(=O)C12C3C4C1C1C2C3C41C(=O)C(C)(C)C)C(C)C` (stereo not drawn), the TGI was greater than 100 µM in assay [1], 63.7 µM in assay [2], greater than 100 µM in assay [3] and greater than 100 µM in assay [6].

(Values after PubChem BioAssay (NCI).)
